This series relates to CYP3A4. As to the kind of experiment: Midazolam drug-drug interaction assessment. The note with it: 2 mg midazolam with third once-weekly 400-mg dose of MK-8507 vs midazolam alone.

Experimental: Study 2 (protocol MK-8507-002) was a randomized, serial, 3-panel (A to C), single- and multiple-QW rising-dose trial. Single doses of 400, 800, and 1,200 mg MK-8507 or placebo tablet formulation were administered on day 1 to panels A, B, and C, respectively, to continue dose escalation beyond the dose range in study 1. Following a washout period of 3 weeks, the multiple-dose portion of the trial began. Participants in panels A, B, and C received QW doses of 100, 200, or 400 mg MK-8507 or placebo for 3 weeks (i.e., on days 22, 29, and 36), respectively. […] The PK profile of midazolam following a single oral dose alone or after multiple oral dose administration of MK-8507 was also evaluated. […]
Plasma samples collected for midazolam assay were analyzed by Syneos Health (Québec, Canada). […] The lower limit of quantitation was 20.00 pg/mL, and the analytical range was 20.00 to 20,000.00 pg/mL.
PK parameter values were calculated by noncompartmental analyses using the software Phoenix WinNonlin Professional (version 6.3) (Certara, Princeton, NJ, USA). […] AUC0–∞ and AUC0–168hr were calculated using the linear-trapezoidal method for ascending concentrations and the log-trapezoidal method for descending concentrations (linear up/log down). […]

Regarding `Cc1ncc2n1-c1ccc(Cl)cc1C(c1ccccc1F)=NC2` [Midazolam, midazolam], the “decrease in midazolam AUC when coadministered with MK-8507” value came out at 12% and the “decrease in midazolam Cmax when coadministered with MK-8507” value is 19%.

The values above are taken from PMC8597757, “Pharmacokinetic and Safety Profile of the Novel HIV Nonnucleoside Reverse Transcriptase Inhibitor MK-8507 in Adults without HIV” (Antimicrobial Agents and Chemotherapy, 2021).
